# Reference: patent US10350228B2, “Treatment of sickle cell disease and inflammatory conditions” (Seattle Genetics, Inc., priority 2012, dated 2019)
# Where two headings read alike, the source gives them in different places.
# Legend:
# [1] = system: antibody core fucosylation; assay: Inhibition of antibody core fucosylation by fucose analogs; type: cell-based
# Text: Methods of determining whether a fucose analog is capable of having an effect on antibody core fucosylation is provided in WO 2012/019165.
# [2] = system: NF-κB phospho-p65; assay: Western blot of NF-κB phospho-p65 in liver nuclear extracts of sickle cell mice; type: in vivo, NY1DD sickle cell mice; details: heme-treated mice
# Procedure: NY1DD sickle cell mice were given plain water or 20 or 100 mM 2-fluorofucose in their drinking water ad libitum for 7 days. The treatment and control group had four mice per treatment group. On day 7, the mice were sacrificed with CO2. An EDTA blood sample was collected from the heart and the liver was removed and frozen in liquid nitrogen. Total white blood cell counts and differentials were performed by manual counting using a hemocytometer and Wright-stained blood smears, respectively. Nuclear extracts were prepared from nuclei isolated from liver homogenates. Western blots of the nuclear extracts were immunostained with antibodies to NF-κB phospho-p65 a marker of NF-κB activation.
# [3] = Table 2, 50 μM analog, read-out: Inhibition at 50 μM
# [4] = Table 1, 50 μM analog, read-out: Inhibition at 50 μM
compound,measurement,setting,value
2-deoxy-2-fluorofucose diacetate,inhibition at 50 µM,"[1]; Table 2, 50 μM analog",>80%
same,Inhibition at 1 mM,"[1]; Table 2, 1 mM analog",>80%
2-deoxy-2-fluorofucose peracetate,inhibition at 50 µM,"[1]; Table 2, 50 μM analog",>80%
same,Inhibition at 1 mM,"[1]; Table 2, 1 mM analog",>80%
5-Benzyloxy fucose peracetate,inhibition at 50 µM,"[1]; Table 2, 50 μM analog",0%
same,Inhibition at 1 mM,"[1]; Table 2, 1 mM analog",75%
"CC(=O)OC1C(C)OC(F)C(F)C1OC(C)=O (stereo not shown) [1,2-difluoro-1,2-didexoy fucose peracetate]",inhibition at 50 µM,"[1]; Table 2, 50 μM analog",>80%
same,Inhibition at 1 mM,"[1]; Table 2, 1 mM analog",>80%
"C#C[C@H](OC(C)=O)[C@H]1OC(OC)[C@@H](OC(C)=O)[C@@H]1OC(C)=O (stereo partly shown) [1-methyl-2,3,4-triacetyl alkynyl fucose]",inhibition at 50 µM,"[1]; Table 1, 50 μM analog",68%
same,Inhibition at 1 mM,"[1]; Table 1, 1 mM analog",>80%
"CC(=O)OC1O[C@@H](C)[C@@H](OC(C)=O)[C@@H](OC(C)=O)C1(F)F (stereo partly drawn) [2-deoxy-2,2-difluorofucopyranose triacetate (beta)]",inhibition at 50 µM,"[1]; Table 2, 50 μM analog",0%
same,Inhibition at 1 mM,"[1]; Table 2, 1 mM analog",75%
"CC(=O)OC1O[C@@H](C)[C@@H](OC(C)=O)[C@@H](OC(C)=O)C1(F)F (stereo partly shown) [2-deoxy-2,2-difluorofucopyranose triacetate]",inhibition at 50 µM,[1]; [3],0%
same,inhibition at 1000 µM,"[1]; Table 2, 1 mM analog",64%
CC(=O)OC(C#N)[C@H]1OC(OC(C)=O)[C@@H](OC(C)=O)[C@@H]1OC(C)=O (stereo partly shown) [5-cyanoarabinofuranose tetraacetate],inhibition at 50 µM,[1]; [4],5 to 10%
CC(=O)OC1OC(C#N)[C@@H](OC(C)=O)[C@@H](OC(C)=O)[C@@H]1OC(C)=O (stereo partly shown) [5-cyanoarabinopyranose tetraacetate],inhibition at 50 µM,[1]; [4],20%
"CC(=O)OC1O[C@@H]([C@]2(C)CO2)[C@@H](OC(C)=O)[C@@H](OC(C)=O)[C@@H]1OC(C)=O (stereo partly drawn) [5-methyloxiran-arabinose tetraacetate, (3S,4R,5S,6R)-6-((S)-2-methyloxiran-2-yl)-tetrahydro-2H-pyran-2,3,4,5-tetrayl tetraacetate]",inhibition at 50 µM,[1]; [4],~0%
same,inhibition at 1000 µM,"[1]; Table 1, 1 mM analog",35 to 40%
"CC#CC(OC(C)=O)[C@@H](OC(C)=O)[C@@H](OC(C)=O)[C@@H](C=O)OC(C)=O (stereo partly shown) [5-propynyl fucose tetraacetate, 5-propynylarabinose tetraacetate]",inhibition at 50 µM,[1]; [4],50%
same,inhibition at 1000 µM,"[1]; Table 1, 1 mM analog",> 80%
"C=CC1OC(OC(C)=O)C(OC(C)=O)C(OC(C)=O)C1OC(C)=O (stereo not shown) [5-vinyl fucose tetraacetate, 5-ethylenylarabinose tetraacetate]",inhibition at 50 µM,"[1]; Table 1, 50 μM analog",~0%
same,Inhibition at 1 mM,"[1]; Table 1, 1 mM analog",~4%
"CC(=O)O[C@H]([C@H](OC(C)=O)[C@@H](OC(C)=O)C(F)F)[C@@H](C=O)OC(C)=O [6,6-difluorofucose tetraacetate]",inhibition at 50 µM,[1]; [3],> 80%
same,inhibition at 1000 µM,"[1]; Table 2, 1 mM analog",> 80%
"CC(=O)O[C@H]([C@H](OC(C)=O)[C@H](CBr)OC(C)=O)[C@@H](C=O)OC(C)=O [6-bromo-fucose tetraacetate, 6-bromofucose tetraacetate]",inhibition at 50 µM,[1]; [4],50%
same,inhibition at 1000 µM,"[1]; Table 1, 1 mM analog",80%
"CC(=O)O[C@H]([C@H](OC(C)=O)[C@H](CCl)OC(C)=O)[C@@H](C=O)OC(C)=O [6-chloro-fucose tetraacetate, 6-chlorofucose tetraacetate]",inhibition at 50 µM,[1]; [4],20%
same,inhibition at 1000 µM,"[1]; Table 1, 1 mM analog",20 to 30%
"CC(=O)O[C@H]([C@H](OC(C)=O)[C@H](CC#N)OC(C)=O)[C@@H](C=O)OC(C)=O [6-cyano fucose tetraacetate, 6-cyanofucose tetraacetate]",inhibition at 50 µM,[1]; [4],30%
same,inhibition at 1000 µM,"[1]; Table 1, 1 mM analog",> 80%
"CC(=O)O[C@H]([C@H](OC(C)=O)[C@H](CI)OC(C)=O)[C@@H](C=O)OC(C)=O [6-iodo-fucose tetraacetate, 6-iodofucose tetraacetate]",inhibition at 50 µM,[1]; [4],3%
same,inhibition at 1000 µM,"[1]; Table 1, 1 mM analog",30%
"CC(=O)OC1CC(OC(C)=O)C(OC(C)=O)C(C)O1 (stereo not shown) [6-methyl-tetrahydro-2H-pyran-2,4,5-triyl triacetate]",inhibition at 50 µM,[1]; [3],0%
same,inhibition at 1000 µM,"[1]; Table 2, 1 mM analog",36%
"C#CC1OC(OC(=O)C(C)(C)C)C(OC(=O)C(C)(C)C)C(OC(=O)C(C)(C)C)C1O (stereo not shown) [Alkynyl fucose 1,2,3-(trimethylacetate), 5-ethynylarabinose 1,2,3-(trimethylacetate)]",inhibition at 50 µM,"[1]; Table 1, 50 μM analog",~0%
"C#CC1OC(OC(=O)C(C)(C)C)C(O)C(OC(=O)C(C)(C)C)C1O (stereo not shown) [Alkynyl fucose di(trimethylacetate), 5-ethynylarabinose 1,3-(trimethylacetate)]",inhibition at 50 µM,"[1]; Table 1, 50 μM analog",>80%
"C#CC(OC(C)=O)[C@@H](OC(C)=O)[C@@H](OC(C)=O)[C@@H](C=O)OC(C)=O (stereo partly shown) [Alkynyl fucose peracetate, 5-ethynylarabinose tetraacetate]",inhibition at 50 µM,[1]; [4],> 80%
same,inhibition at 1000 µM,"[1]; Table 1, 1 mM analog",> 80%
C#C[C@@H]1OC(OC(=O)C(C)C)[C@@H](OC(=O)C(C)C)[C@H](OC(=O)C(C)C)[C@@H]1OC(=O)C(C)C (stereo partly shown) [Alkynyl fucose perisobutanoate],inhibition at 50 µM,"[1]; Table 1, 50 μM analog",>80%
same,Inhibition at 1 mM,"[1]; Table 1, 1 mM analog",>80%
C#C[C@H]1OC(OC(=O)c2ccncc2)[C@@H](OC(=O)c2ccncc2)[C@H](OC(=O)c2ccncc2)[C@@H]1OC(=O)c1ccncc1 (stereo partly shown) [Alkynyl fucose perisonicotinate],inhibition at 50 µM,"[1]; Table 1, 50 μM analog",>80%
same,Inhibition at 1 mM,"[1]; Table 1, 1 mM analog",>80%
C#CC1OC(OC(=O)c2cccnc2)C(OC(=O)c2cccnc2)C(OC(=O)c2cccnc2)C1OC(=O)c1cccnc1 (stereo not shown) [Alkynyl fucose pernicotinate],inhibition at 50 µM,"[1]; Table 1, 50 μM analog",>80%
same,Inhibition at 1 mM,"[1]; Table 1, 1 mM analog",>80%
"C#CC(OC(=O)CCCCC)[C@@H](OC(=O)CCCCC)[C@@H](OC(=O)CCCCC)[C@@H](C=O)OC(=O)CCCCC (stereo partly shown) [Alkynyl fucose tetra-n-hexanoate, 5-ethynylarabinose tetrahexanoate]",inhibition at 50 µM,[1]; [4],> 80%
same,inhibition at 1000 µM,"[1]; Table 1, 1 mM analog",> 80%
"C#C[C@@H]1OC(OC(=O)CC)[C@@H](OC(=O)CC)[C@H](OC(=O)CC)[C@@H]1OC(=O)CC (stereo partly shown) [Alkynyl fucose tetrapropanonate, 5-ethynylarabinose tetrapropropanoate]",inhibition at 50 µM,"[1]; Table 1, 50 μM analog",>80%
same,Inhibition at 1 mM,"[1]; Table 1, 1 mM analog",>80%
"C#CC(O)[C@@H](O)[C@@H](O)[C@H](O)C=O (stereo partly shown) [Alkynyl fucose, 5-ethynylarabinose]",inhibition at 50 µM,[1]; [4],> 80%
"C#CC[C@@H]1OC(OC(C)=O)[C@@H](OC(C)=O)[C@H](OC(C)=O)[C@@H]1OC(C)=O (stereo partly drawn) [propargyl fucose tetraacetate, (3S,4R,5R,6S)-6-(prop-2-ynyl)-tetrahydro-2H-pyran-2,3,4,5-tetrayl tetraacetate]",inhibition at 50 µM,[1]; [4],~10%
same,inhibition at 1000 µM,"[1]; Table 1, 1 mM analog",10 to 20%
"hemin [heme, reference compound]",Nuclear NF-κB phospho-p65 in liver,[2],markedly decreased
